# Structures can show the parent of a compound that is named as a salt.
# Test: Particle size distribution of micronized and non-micronized dabigatran etexilate mesylate
# Assay type: physicochemical
# Conditions: DEM particle diameter distribution
# From the text: Examples of dabigatran etexilate mesylate particle size useful for the pharmaceutical composition described herein are shown in Table 9. The distribution of dabigatran etexilate mesylate particle sizes is set forth by the diameter distribution in either micronized or non-micronized samples. The dissolution of micronized and non-micronized dabigatran etexilate mesylate particles was studied using the matrix fill corresponding to DEM A as shown in Table 8 encapsulated in a hard gelatin capsule.
"Particle size D(v, 0.1)","Particle size D(v, 0.5)","Particle size D(v, 0.9)",Compound
1.5 μm,4.2 μm,10.5 μm,"CCCCCCOC(=O)N=C(N)c1ccc(NCc2nc3cc(C(=O)N(CCC(=O)OCC)c4ccccn4)ccc3n2C)cc1 [Micronized, dabigatran etexilate mesylate]"
4.7 μm,20.8 μm,50.1 μm,"CCCCCCOC(=O)N=C(N)c1ccc(NCc2nc3cc(C(=O)N(CCC(=O)OCC)c4ccccn4)ccc3n2C)cc1 [Non-micronized, dabigatran etexilate mesylate]"
